The values below are quoted from earlier work in patent publication US20230314440A1, “METHOD OF TREATING CANCER” (priority 2020, published 2023).

The subject of the series is metastatic renal cell carcinoma (RCC). The note with it: patients with metastatic RCC; ESMO 2018, Presentation No. 882P.

In the case of `COc1cc2nccc(Oc3ccc(NC(=O)C4(C(=O)Nc5ccc(F)cc5)CC4)cc3)c2cc1OC` [cabozantinib, N-(4-{[6,7-bis(methyloxy)quinolin-4-yl]oxy}phenyl)-N′-(4-fluorophenyl)cyclopropane-1,1-dicarboxamide], the “effect on systemic tumor immunity” value was “has an impact on systemic tumor immunity”.
